Residues, ends and D or L forms follow the SMILES beside them. *: point of attachment. Palmitoyl = CCCCCCCCCCCCCCCC(=O)*

The nature of this data set: Franz cell ex vivo skin explant penetration with 3D OrbiSIMS analysis. In kind it is in vitro ADME, human. The settings on record: after 1 hour in Franz cell; formulation with glycerin+methyl gluceth-20 versus glycerin only (FIG. 1). The protocol:
For ex vivo analysis, full thickness human skin tissue was removed during cosmetic surgery from Caucasian female donors (aged 35-70). The explant was frozen immediately post-surgery, shipped and stored at −20° C. prior to use.
The tissue was then defrosted, cut and mounted, dermal side down, in a Franz-type static diffusion cell set-up (Franz, 1975), with an exposed surface area of 1.1 cm^2. Infinite doses of the cosmetic formulations were applied to the donor chamber, with the explant exposed to the formulations for 1 hour in a water bath set to 36.5° C. Sink conditions were maintained throughout the experiments.
After 1 hour, the Franz cell was dismantled, excess formulation was removed with a dry sponge and the skin explant was wiped with a sponge soaked in Teepol Solution (3% v/v). Next, the explant was dehydrated under vacuum at room temperature for 24 hours before 3D OrbiSIMS analysis 3D OrbiSIMS Analysis […]
A 20 KeV Ar 3000^+ analysis beam with a diameter of 20 μm was used as the primary ion source. Samples were analysed at ambient temperature across a 400×400 μm area in positive polarity with sawtooth raster mode and a total crater size of 486×486 μm. […] Mass spectra were recorded at a resolution of 240,000 at m/z 200 in the mass range of 75 to 1,125 m/z. […]

For the compound `CCCCCCCCCCCCCCCC(=O)NCC(=O)N[C@@H](Cc1c[nH]cn1)C(=O)N[C@@H](CCCCN)C(=O)O` [Pal-GHK, N-Palmitoyl-Gly-His-Lys] (Palmitoyl-Gly-His-Lys-OH; C-terminus assumed), the “Pal-GHK peptide ion intensity in skin explant” value is on record as “more peptide ion present”.

Source of the values: US20240350392A1, “COMPOSITION WITH BIOLOGICALLY ACTIVE AGENT” (THE BOOTS COMPANY PLC, priority 2021, published 2024).
